Assay results taken from ChEMBL document CHEMBL1671766, “In vitro activities of several antimicrobial agents against recently isolated and genotyped Chlamydia trachomatis urogenital serovars D through K” (2010).

Legend:
Assay type in all cases: functional, LLC-MK2
Chlamydia trachomatis [1] = experiment: Antimicrobial activity against Chlamydia trachomatis UW-36 serovar J infected in […] monolayers assessed as reduction in number of microbial inclusions after 48 hrs; settings: J/UW-36, 48 h
Chlamydia trachomatis [2] = experiment: Antimicrobial activity against Chlamydia trachomatis Ic Cal-8 serovar D infected in […] monolayers assessed as reduction in number of microbial inclusions after 48 hrs
Chlamydia trachomatis [3] = experiment: Antimicrobial activity against Chlamydia trachomatis serovar H infected in […] monolayers assessed as reduction in number of microbial inclusions after 48 hrs
Chlamydia trachomatis [4] = experiment: Bactericidal activity against Chlamydia trachomatis serovar G infected in […] monolayers assessed as reduction in number of microbial inclusions after 48 hrs
Chlamydia trachomatis [5] = experiment: Antimicrobial activity against Chlamydia trachomatis serovar D infected in […] monolayers assessed as reduction in number of microbial inclusions after 48 hrs
Chlamydia trachomatis [6] = experiment: Bactericidal activity against Chlamydia trachomatis serovar H infected in […] monolayers assessed as reduction in number of microbial inclusions after 48 hrs
Chlamydia trachomatis [7] = experiment: Bactericidal activity against Chlamydia trachomatis serovar D infected in […] monolayers assessed as reduction in number of microbial inclusions after 48 hrs
Chlamydia trachomatis [8] = experiment: Bactericidal activity against Chlamydia trachomatis serovar F infected in […] monolayers assessed as reduction in number of microbial inclusions after 48 hrs
Chlamydia trachomatis [9] = experiment: Bactericidal activity against Chlamydia trachomatis serovar E infected in […] monolayers assessed as reduction in number of microbial inclusions after 48 hrs
Chlamydia trachomatis [10] = experiment: Antimicrobial activity against Chlamydia trachomatis serovar E infected in […] monolayers assessed as reduction in number of microbial inclusions after 48 hrs
Chlamydia trachomatis [11] = experiment: Antimicrobial activity against Chlamydia trachomatis 580 serovar H infected in […] monolayers assessed as reduction in number of microbial inclusions after 48 hrs
Chlamydia trachomatis [12] = experiment: Antimicrobial activity against Chlamydia trachomatis serovar J infected in […] monolayers assessed as reduction in number of microbial inclusions after 48 hrs
Chlamydia trachomatis [13] = experiment: Antimicrobial activity against Chlamydia trachomatis serovar I infected in […] monolayers assessed as reduction in number of microbial inclusions after 48 hrs
Chlamydia trachomatis [14] = experiment: Antimicrobial activity against Chlamydia trachomatis serovar F infected in […] monolayers assessed as reduction in number of microbial inclusions after 48 hrs
Chlamydia trachomatis [15] = experiment: Bactericidal activity against Chlamydia trachomatis serovar K infected in […] monolayers assessed as reduction in number of microbial inclusions after 48 hrs
Chlamydia trachomatis [16] = experiment: Bactericidal activity against Chlamydia trachomatis serovar J infected in […] monolayers assessed as reduction in number of microbial inclusions after 48 hrs
Chlamydia trachomatis [17] = experiment: Antimicrobial activity against Chlamydia trachomatis serovar K infected in […] monolayers assessed as reduction in number of microbial inclusions after 48 hrs
Chlamydia trachomatis [18] = experiment: Antimicrobial activity against Chlamydia trachomatis serovar G infected in […] monolayers assessed as reduction in number of microbial inclusions after 48 hrs
Chlamydia trachomatis [19] = experiment: Bactericidal activity against Chlamydia trachomatis serovar I infected in […] monolayers assessed as reduction in number of microbial inclusions after 48 hrs
Chlamydia trachomatis [20] = experiment: Antimicrobial activity against Chlamydia trachomatis Bour serovar E infected in […] monolayers assessed as reduction in number of microbial inclusions after 48 hrs

CC[C@H]1OC(=O)[C@H](C)[C@@H](O[C@H]2C[C@@](C)(OC)[C@@H](O)[C@H](C)O2)[C@H](C)[C@@H](O[C@@H]2O[C@H](C)C[C@H](N(C)C)[C@H]2O)[C@](C)(O)C[C@@H](C)CN(C)[C@H](C)[C@@H](O)[C@]1(C)O [AZITHROMYCIN]
0.5 µg/mL: MIC (Chlamydia trachomatis [1]) | MBC (Chlamydia trachomatis [7]) | MBC (Chlamydia trachomatis [8]) | MIC (Chlamydia trachomatis [13]) | MIC (Chlamydia trachomatis [14]) | MBC (Chlamydia trachomatis [15]) | MBC (Chlamydia trachomatis [16]) | MIC (Chlamydia trachomatis [17]) | MIC (Chlamydia trachomatis [18])
1 µg/mL: MBC (Chlamydia trachomatis [2]) | MBC (Chlamydia trachomatis [4]) | MBC (Chlamydia trachomatis [6]) | MBC (Chlamydia trachomatis [9]) | MBC (Chlamydia trachomatis [19])
0.25 µg/mL: MIC (Chlamydia trachomatis [2]) | MIC (Chlamydia trachomatis [3]) | MIC (Chlamydia trachomatis [5]) | MIC (Chlamydia trachomatis [10]) | MIC (Chlamydia trachomatis [11]) | MIC (Chlamydia trachomatis [12]) | MIC (Chlamydia trachomatis [20])

CC[C@H]1OC(=O)[C@H](C)[C@@H](O[C@H]2C[C@@](C)(OC)[C@@H](O)[C@H](C)O2)[C@H](C)[C@@H](O[C@@H]2O[C@H](C)C[C@H](N(C)C)[C@H]2O)[C@](C)(OC)C[C@@H](C)C(=O)[C@H](C)[C@@H](O)[C@]1(C)O [CLARITHROMYCIN]
0.03 µg/mL: MIC (Chlamydia trachomatis [2]) | MIC (Chlamydia trachomatis [3]) | MIC (Chlamydia trachomatis [5]) | MBC (Chlamydia trachomatis [7]) | MBC (Chlamydia trachomatis [8]) | MBC (Chlamydia trachomatis [9]) | MIC (Chlamydia trachomatis [12]) | MBC (Chlamydia trachomatis [15]) | MIC (Chlamydia trachomatis [18]) | MBC (Chlamydia trachomatis [19]) | MIC (Chlamydia trachomatis [20])
0.015 µg/mL: MIC (Chlamydia trachomatis [10]) | MIC (Chlamydia trachomatis [13]) | MIC (Chlamydia trachomatis [14]) | MIC (Chlamydia trachomatis [17])
0.06 µg/mL: MIC (Chlamydia trachomatis [1]) | MBC (Chlamydia trachomatis [2]) | MBC (Chlamydia trachomatis [4]) | MBC (Chlamydia trachomatis [6]) | MIC (Chlamydia trachomatis [11]) | MBC (Chlamydia trachomatis [16])

C[C@H]1c2cccc(O)c2C(=O)C2=C(O)[C@]3(O)C(=O)C(C(N)=O)=C(O)[C@@H](N(C)C)[C@@H]3[C@@H](O)[C@@H]21.O [DOXYCYCLINE]
0.06 µg/mL: MBC (Chlamydia trachomatis [2]) | MBC (Chlamydia trachomatis [4]) | MBC (Chlamydia trachomatis [6]) | MBC (Chlamydia trachomatis [7]) | MBC (Chlamydia trachomatis [8]) | MBC (Chlamydia trachomatis [9]) | MIC (Chlamydia trachomatis [11]) | MIC (Chlamydia trachomatis [12]) | MIC (Chlamydia trachomatis [13]) | MBC (Chlamydia trachomatis [15]) | MBC (Chlamydia trachomatis [16]) | MBC (Chlamydia trachomatis [19])
0.03 µg/mL: MIC (Chlamydia trachomatis [2]) | MIC (Chlamydia trachomatis [3]) | MIC (Chlamydia trachomatis [5]) | MIC (Chlamydia trachomatis [10]) | MIC (Chlamydia trachomatis [14]) | MIC (Chlamydia trachomatis [17]) | MIC (Chlamydia trachomatis [18]) | MIC (Chlamydia trachomatis [20])
0.5 µg/mL: MIC (Chlamydia trachomatis [1])

CC[C@H]1OC(=O)[C@H](C)[C@@H](O[C@H]2C[C@@](C)(OC)[C@@H](O)[C@H](C)O2)[C@H](C)[C@@H](O[C@@H]2O[C@H](C)C[C@H](N(C)C)[C@H]2O)[C@](C)(O)C[C@@H](C)C(=O)[C@H](C)[C@@H](O)[C@]1(C)O [ERYTHROMYCIN]
0.5 µg/mL: MIC (Chlamydia trachomatis [1]) | MIC (Chlamydia trachomatis [2]) | MIC (Chlamydia trachomatis [3]) | MIC (Chlamydia trachomatis [5]) | MIC (Chlamydia trachomatis [10]) | MIC (Chlamydia trachomatis [13]) | MIC (Chlamydia trachomatis [14]) | MIC (Chlamydia trachomatis [17]) | MIC (Chlamydia trachomatis [18]) | MIC (Chlamydia trachomatis [20])
2 µg/mL: MBC (Chlamydia trachomatis [16])
1 µg/mL: MBC (Chlamydia trachomatis [2]) | MBC (Chlamydia trachomatis [4]) | MBC (Chlamydia trachomatis [6]) | MBC (Chlamydia trachomatis [7]) | MBC (Chlamydia trachomatis [8]) | MBC (Chlamydia trachomatis [9]) | MIC (Chlamydia trachomatis [11]) | MIC (Chlamydia trachomatis [12]) | MBC (Chlamydia trachomatis [15]) | MBC (Chlamydia trachomatis [19])

C[C@H]1COc2c(N3CCN(C)CC3)c(F)cc3c(=O)c(C(=O)O)cn1c23.C[C@H]1COc2c(N3CCN(C)CC3)c(F)cc3c(=O)c(C(=O)O)cn1c23.O [LEVOFLOXACIN]
0.25 µg/mL: MBC (Chlamydia trachomatis [4]) | MIC (Chlamydia trachomatis [18])
0.5 µg/mL: MBC (Chlamydia trachomatis [1]) | MIC (Chlamydia trachomatis [1]) | MBC (Chlamydia trachomatis [2]) | MIC (Chlamydia trachomatis [2]) | MIC (Chlamydia trachomatis [3]) | MIC (Chlamydia trachomatis [5]) | MBC (Chlamydia trachomatis [6]) | MBC (Chlamydia trachomatis [7]) | MBC (Chlamydia trachomatis [8]) | MBC (Chlamydia trachomatis [9]) | MIC (Chlamydia trachomatis [10]) | MBC (Chlamydia trachomatis [11]) | MIC (Chlamydia trachomatis [11]) | MIC (Chlamydia trachomatis [12]) | MIC (Chlamydia trachomatis [13]) | MIC (Chlamydia trachomatis [14]) | MBC (Chlamydia trachomatis [15]) | MBC (Chlamydia trachomatis [16]) | MIC (Chlamydia trachomatis [17]) | MBC (Chlamydia trachomatis [19]) | MBC (Chlamydia trachomatis [20]) | MIC (Chlamydia trachomatis [20])
